Data: US20110034487A1, “CXCR3 ANTAGONISTS” (AMGEN INC., priority 2009, published 2011)

How the values were obtained:
[1] = Multiple dosing of AMG 487 in humans; type: in vivo, human
Description: Thus, there remains a need to identify a suitable clinical candidate devoid of the unpredicted accumulation seen with AMG 487. Such compounds are provided herein.

[2] = test system: lymphocyte migration toward I-TAC; assay: Lymphocyte migration toward I-TAC; type: cell-based; details: 100% human plasma, read-out: Migration to ITAC IC50 (nM) 100% Plasma
[3] = target: T1, CXCR3 (Homo sapiens, UniProt P49682); assay: 125I-I-TAC binding assay (CXCR3 binding); details: 50% human plasma; primary, activated human lymphocytes
T1 construct: endogenous in cells
T1 sequence (P49682 1-368): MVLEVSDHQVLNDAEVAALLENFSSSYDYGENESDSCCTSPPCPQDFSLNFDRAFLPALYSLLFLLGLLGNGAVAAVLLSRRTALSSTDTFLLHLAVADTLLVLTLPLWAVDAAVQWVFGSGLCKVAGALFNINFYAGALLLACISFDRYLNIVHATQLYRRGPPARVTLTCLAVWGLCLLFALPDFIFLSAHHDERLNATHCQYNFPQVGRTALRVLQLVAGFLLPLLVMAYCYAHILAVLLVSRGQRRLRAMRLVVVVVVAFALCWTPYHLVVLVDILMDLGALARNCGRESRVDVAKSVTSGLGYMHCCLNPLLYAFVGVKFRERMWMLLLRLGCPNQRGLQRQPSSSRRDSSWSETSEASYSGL
Description: (§1) Unless otherwise noted, all reagents used are available from commercial sources (e.g., Sigma). Test compounds are diluted in DMSO to a concentration that is 40-times the intended final assay concentration; 5 μL are transferred to each well of a 96-well flat-bottomed polypropylene plate (e.g., from Greiner, Inc.). The cells were resuspended in assay buffer (25 mM Hepes, 80 mM NaCl, 1 mM CaCl2, 5 mM MgCl2, 0.2% bovine serum albumin, pH 7.1, stored at 4° C.) at 5 million cells per mL; 100 μL of this cell suspension is then transferred to each well of a 96-well plate containing the diluted test compounds. ^125I-labelled chemokine (purchased from commercial sources, e.g., Amersham, PE Life Sciences) is diluted in assay buffer to a concentration of approximately 60 pM; 100 μL of this chemokine solution is transferred to each well of a 96-well plate containing compounds and cell suspension. The plates are sealed with commercially available foil plate seals (e.g., from E&K Scientific), and stored at 4° C. for 2 to 4 h, shaking gently. […] The plates are counted on a scintillation counter, such as a Packard TopCount. […] Data were analyzed using commercially available software (e.g., Excel from Microsoft, Prism from GraphPad Software Inc.).

[4] = target: T1, CXCR3; assay: [125I]-IP-10 binding assay (CXCR3 binding)
Description: as §1

[5] = target: T1, CXCR3; assay: HWB receptor occupancy (500 ng/ml ITAC); type: cell-based
[6] = test system: cellular migration into the lung; assay: Cellular migration into the lung following bleomycin challenge; type: in vivo; details: following bleomycin challenge (FIG. 1)
[7] = target: CYP3A4 (Homo sapiens, UniProt P08684); details: human hepatocytes and microsomes
Chain of CYP3A4 (P08684 whole entry): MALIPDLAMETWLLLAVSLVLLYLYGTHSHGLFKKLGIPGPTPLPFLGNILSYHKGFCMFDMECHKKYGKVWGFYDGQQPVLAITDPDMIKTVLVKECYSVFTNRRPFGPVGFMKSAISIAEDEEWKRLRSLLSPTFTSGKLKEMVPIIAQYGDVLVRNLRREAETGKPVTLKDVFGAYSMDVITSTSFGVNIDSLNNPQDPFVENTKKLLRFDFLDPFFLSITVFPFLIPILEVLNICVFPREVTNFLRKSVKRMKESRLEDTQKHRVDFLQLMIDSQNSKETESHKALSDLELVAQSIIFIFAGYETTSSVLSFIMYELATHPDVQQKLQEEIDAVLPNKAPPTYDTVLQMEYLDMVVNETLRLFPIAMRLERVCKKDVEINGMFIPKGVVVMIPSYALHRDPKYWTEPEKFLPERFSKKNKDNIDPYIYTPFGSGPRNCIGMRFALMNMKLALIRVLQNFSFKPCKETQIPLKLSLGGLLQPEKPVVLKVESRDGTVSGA

Accumulation of the compound upon multiple dosing [1]	IC50 [2]	IC50 [3]	IC50 ([4]; [125I]-IP-10 Binding IC50 (nM) 50% Plasma, 50% human plasma, primary, activated human lymphocytes)	IC50 ([4]; buffer, read-out: [125I]-IP-10 Binding IC50 (nM) Buffer)	IC50 [5]	Structure (SMILES)	Cellular migration into the lung [6]	CYP3A4 inhibition [7]
dose-dependent accumulation	346 ± 123 nM	–	–	–	–	CCOc1ccc(-n2c([C@@H](C)N(Cc3cccnc3)C(=O)Cc3ccc(OC(F)(F)F)cc3)nc3ncccc3c2=O)cc1 [AMG 487, reference compound]	–	–
–	65 ± 14 nM	0.051 ± 0.02 µM	12 ± 5 nM	7 ± 2 nM	0.0098 ± 0.0044 µM	C[C@H](c1nc2ncccc2c(=O)n1-c1ccc(Cl)cc1)N(CC1CCS(=O)(=O)CC1)C(=O)Cc1ccc(C(F)(F)F)c(F)c1 [Compound 1]	inhibits cellular migration into the lung	–
–	–	–	–	–	–	CC(c1nc2ncccc2c(=O)n1-c1ccc(O)cc1)N(Cc1cccnc1)C(=O)Cc1ccc(OC(F)(F)F)cc1 (stereo not drawn) [Compound M2]	–	time-dependent inhibitor of CYP3A4
